Data as given in paper PMC8546428, “Convergent olfactory trace amine-associated receptors detect biogenic polyamines with distinct motifs via a conserved binding site” (The Journal of Biological Chemistry, 2021).
Positions count from the first letter of the chain named.

Experiments:
sTAAR365 T7.42A = biological target: T1, sTAAR365 T7.42A (Petromyzon marinus, UniProt A0A678XMK4, T298A)
T1 sequence (A0A678XMK4 1-365 T298A): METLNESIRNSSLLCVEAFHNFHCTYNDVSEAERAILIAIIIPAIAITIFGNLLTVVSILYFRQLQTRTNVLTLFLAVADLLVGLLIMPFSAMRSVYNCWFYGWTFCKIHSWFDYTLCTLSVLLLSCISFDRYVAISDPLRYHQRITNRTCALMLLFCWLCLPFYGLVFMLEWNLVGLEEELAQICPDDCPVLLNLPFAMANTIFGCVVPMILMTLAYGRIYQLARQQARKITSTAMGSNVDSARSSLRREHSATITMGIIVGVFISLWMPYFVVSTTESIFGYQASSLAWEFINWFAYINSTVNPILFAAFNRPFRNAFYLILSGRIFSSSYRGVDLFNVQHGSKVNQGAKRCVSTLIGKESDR

mTAAR9 W7.40F = biological target: T2, mTAAR9 W7.40F (Mus musculus, UniProt Q5QD04, W298F); assay: CRE-luciferase reporter assay, mTAAR9 mutant in Hana3A; format: cell-based; conditions: read-out: EC50 (mean ± S.D., n = 3)
T2 construct: expressed in transfected cells; host or cells: Hana3A (HEK293-derived)
T2 sequence (Q5QD04 1-348 W298F): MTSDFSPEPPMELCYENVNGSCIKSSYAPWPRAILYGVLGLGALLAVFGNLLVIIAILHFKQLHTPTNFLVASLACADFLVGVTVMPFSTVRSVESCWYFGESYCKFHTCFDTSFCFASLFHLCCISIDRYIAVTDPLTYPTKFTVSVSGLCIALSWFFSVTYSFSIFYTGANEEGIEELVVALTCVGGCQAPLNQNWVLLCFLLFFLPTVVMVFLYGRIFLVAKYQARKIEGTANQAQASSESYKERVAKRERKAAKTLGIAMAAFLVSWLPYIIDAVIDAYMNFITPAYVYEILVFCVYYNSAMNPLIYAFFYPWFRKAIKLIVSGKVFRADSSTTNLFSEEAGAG

sTAAR365 Y7.43S = sTAAR365 Y7.43S (Petromyzon marinus, UniProt A0A678XMK4, Y299S); assay: cell-based
mTAAR9 E7.36D = biological target: T3, mTAAR9 E7.36D (Mus musculus, UniProt Q5QD04, E294D); assay: CRE-luciferase reporter assay, mTAAR9 mutant in Hana3A; format: cell-based; conditions: read-out: EC50 (mean ± S.D., n = 3)
T3 construct: expressed in transfected cells; host or cells: Hana3A (HEK293-derived)
T3 sequence (Q5QD04 1-348 E294D): T2 sequence (Q5QD04 1-348 W298F) with E294D, F298W

sTAAR365 Y7.43A = sTAAR365 Y7.43A (Petromyzon marinus, UniProt A0A678XMK4, Y299A); assay: cell-based
sTAAR365 Y7.43Q = sTAAR365 Y7.43Q (Petromyzon marinus, UniProt A0A678XMK4, Y299Q); assay: cell-based
mTAAR9 W7.40Y = biological target: T4, mTAAR9 W7.40Y (Mus musculus, UniProt Q5QD04, W298Y); assay: CRE-luciferase reporter assay, mTAAR9 mutant in Hana3A; format: cell-based; conditions: read-out: EC50 (mean ± S.D., n = 3)
T4 construct: expressed in transfected cells; host or cells: Hana3A (HEK293-derived)

Cat TAAR9 = conditions: cat TAAR9, ligand 1 mM, Fig. 1B
Experimental: (§1) We examined the response of TAAR9s from rat, human, hamster, and rabbit to the stimulation of 1 mM amines using a well-established cAMP response element (CRE)-driven luciferase reporter assay based on Golf-mediated cAMP signal transduction ([5], [24]). In addition to the four mTAAR9 ligands, we included putrescine, which is also a polyamine and precursor of spermine/spermidine biosynthesis.
(§2) Mammalian TAAR9 plasmids were transfected into Hana3A cells along with a cAMP-dependent luciferase reporter plasmid (CRE-Luc). Transfected cells were incubated with tested ligands, and luciferase activity was quantified with a […] substrate as a reporter for Golf-mediated TAAR activation. Luciferase activity was indicated by the luminescence value and normalized as a fold-increase over the response to the vehicle stimuli (mean ± S.D., n = 3). […] B, Hana3A cells expressing mouse, rat, human, cat, hamster, and rabbit TAAR9 were incubated with either vehicle or tested ligands (1 mM) and assayed for reporter activity. C, concentration-dependent luciferase activity in Hana3A cells expressing mouse, rat, and cat TAAR9 receptors stimulated with cadaverine, spermidine, and spermine.
(§3) The firefly luciferase and renilla luciferase activity was measured with a BioTek microplate reader following manufacturer’s instructions.

hamster TAAR9 = hamster TAAR9 (Mesocricetus auratus, UniProt A0A1U7R5X1); conditions: hamster TAAR9, ligand 1 mM, Fig. 1B
Experimental: as §1, §2, §3

rabbit TAAR9 = rabbit TAAR9 (Oryctolagus cuniculus, UniProt G1SUU9); conditions: rabbit TAAR9, ligand 1 mM, Fig. 1B
Experimental: as §1, §2, §3

human TAAR9 = human TAAR9 (Homo sapiens, UniProt Q96RI9); conditions: human TAAR9, ligand 1 mM, Fig. 1B
Experimental: as §1, §2, §3

sTAAR365 Y6.51L = biological target: T5, sTAAR365 Y6.51L (Petromyzon marinus, UniProt A0A678XMK4, Y272L); conditions: HEK293T, cAMP production
T5 sequence (A0A678XMK4 1-365 Y272L): T1 sequence (A0A678XMK4 1-365 T298A) with Y272L, A298T

Chain of rabbit TAAR9 (G1SUU9 1-348): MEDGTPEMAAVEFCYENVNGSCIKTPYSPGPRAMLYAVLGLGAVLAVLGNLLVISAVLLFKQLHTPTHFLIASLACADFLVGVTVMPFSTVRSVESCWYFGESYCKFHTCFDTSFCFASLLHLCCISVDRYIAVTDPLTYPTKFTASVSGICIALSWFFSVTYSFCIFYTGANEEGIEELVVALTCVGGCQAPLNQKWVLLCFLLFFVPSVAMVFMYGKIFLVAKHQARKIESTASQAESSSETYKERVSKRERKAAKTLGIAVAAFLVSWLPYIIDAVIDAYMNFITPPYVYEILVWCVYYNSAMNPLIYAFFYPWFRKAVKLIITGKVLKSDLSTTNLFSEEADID
Chain of sTAAR365 Y7.43A (A0A678XMK4 whole entry Y299A): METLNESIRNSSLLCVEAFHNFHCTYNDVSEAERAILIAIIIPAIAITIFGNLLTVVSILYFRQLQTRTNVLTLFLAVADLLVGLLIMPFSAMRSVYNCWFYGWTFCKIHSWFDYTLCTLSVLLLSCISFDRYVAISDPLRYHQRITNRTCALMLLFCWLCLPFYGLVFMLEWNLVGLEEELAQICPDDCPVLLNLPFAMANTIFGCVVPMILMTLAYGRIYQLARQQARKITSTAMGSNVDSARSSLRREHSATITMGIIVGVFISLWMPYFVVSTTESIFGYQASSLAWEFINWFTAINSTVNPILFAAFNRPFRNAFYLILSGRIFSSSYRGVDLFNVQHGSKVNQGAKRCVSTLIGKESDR
T4 sequence (Q5QD04 whole entry W298Y): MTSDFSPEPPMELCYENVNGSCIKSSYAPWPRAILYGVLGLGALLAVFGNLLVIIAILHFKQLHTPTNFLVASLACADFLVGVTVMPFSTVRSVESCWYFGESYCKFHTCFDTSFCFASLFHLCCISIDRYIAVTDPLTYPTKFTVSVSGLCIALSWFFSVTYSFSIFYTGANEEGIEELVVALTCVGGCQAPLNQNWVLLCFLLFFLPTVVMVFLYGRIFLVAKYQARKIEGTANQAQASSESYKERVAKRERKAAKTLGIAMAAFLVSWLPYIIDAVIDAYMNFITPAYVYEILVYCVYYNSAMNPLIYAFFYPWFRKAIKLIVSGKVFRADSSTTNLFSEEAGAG
Chain of sTAAR365 Y7.43Q (A0A678XMK4 whole entry Y299Q): as the sequence (A0A678XMK4 whole entry Y299A) above, with A299Q counted along it
Chain of hamster TAAR9 (A0A1U7R5X1 1-348): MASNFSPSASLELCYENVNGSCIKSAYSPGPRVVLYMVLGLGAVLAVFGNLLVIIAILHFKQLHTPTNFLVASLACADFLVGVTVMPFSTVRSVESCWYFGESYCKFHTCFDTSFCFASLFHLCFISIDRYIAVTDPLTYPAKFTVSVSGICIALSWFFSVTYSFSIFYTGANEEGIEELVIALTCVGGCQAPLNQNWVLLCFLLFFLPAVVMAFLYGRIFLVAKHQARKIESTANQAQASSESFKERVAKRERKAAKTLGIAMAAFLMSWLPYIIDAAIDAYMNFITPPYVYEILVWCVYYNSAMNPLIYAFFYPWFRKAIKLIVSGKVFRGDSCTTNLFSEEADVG
Chain of human TAAR9 (Q96RI9 whole entry): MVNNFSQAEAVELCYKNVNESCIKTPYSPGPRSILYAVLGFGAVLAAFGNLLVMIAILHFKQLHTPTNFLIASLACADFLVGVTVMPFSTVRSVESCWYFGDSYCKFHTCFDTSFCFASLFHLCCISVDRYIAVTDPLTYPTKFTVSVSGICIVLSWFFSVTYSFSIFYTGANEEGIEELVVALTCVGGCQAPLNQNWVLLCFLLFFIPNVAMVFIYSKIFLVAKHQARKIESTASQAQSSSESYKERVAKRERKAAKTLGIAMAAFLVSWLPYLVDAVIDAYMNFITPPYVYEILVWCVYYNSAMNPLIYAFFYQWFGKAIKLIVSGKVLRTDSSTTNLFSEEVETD
Chain of sTAAR365 Y7.43S (A0A678XMK4 whole entry Y299S): as the sequence (A0A678XMK4 whole entry Y299A) above, with A299S counted along it

Compound	increase of EC50 vs wild-type sTAAR365 (sTAAR365 T7.42A)	EC50 (mTAAR9 W7.40F) [µM]	EC50 (sTAAR365 Y7.43S) [µM]	EC50 (mTAAR9 E7.36D) [µM]	EC50 (sTAAR365 Y7.43A) [µM]	EC50 (sTAAR365 Y7.43Q) [µM]	EC50 (mTAAR9 W7.40Y) [µM]	reporter activity (activation of TAAR9) (Cat TAAR9)	reporter activity (activation of TAAR9) (hamster TAAR9)	reporter activity (activation of TAAR9) (rabbit TAAR9)	reporter activity (activation of TAAR9) (human TAAR9)	EC50 (mean ± S.D., n = 3) (sTAAR365 Y6.51L)
NCCCCCN [cadaverine]	over three	83 ± 35	124 ± 9	> 1000	144 ± 11	7 ± 0.3	28 ± 8	–	–	–	–	–
NCCCCN [putrescine]	–	–	–	–	–	–	–	not activated	not activated	not activated	not activated	loss
